Columns and labels:
SARS-CoV M^pro [1] = molecular target: T1, SARS-CoV M^pro (Severe acute respiratory syndrome coronavirus, UniProt P0C6X7); experiment: biochemical
SARS-CoV M^pro [2] = molecular target: T1, SARS-CoV M^pro; assay type: biochemical

Row | Compound | IC50 (SARS-CoV M^pro [1]) | inhibition type (reciprocal plots, velocity versus substrate concentration) (SARS-CoV M^pro [2]) | reversibility (plot of enzyme concentration versus reaction velocity) (SARS-CoV M^pro [2]) | α (effect of inhibitor on the affinity of the enzyme for its substrate) (SARS-CoV M^pro [2])
1 | COC(=O)c1c[nH]c(SSc2ccccc2C(=O)OC)n1 [Compound 3-16, Methyl 2-((2-(methoxycarbonyl)phenyl)disulfanyl)-1H-imidazole-4-carboxylate] | 3.96 ± 0.19 µM | – | – | –
2 | COC(=O)c1c[nH]c(SSc2ccccc2[N+](=O)[O-])n1 [Compound 3-14, Methyl 2-((2-nitrophenyl)disulfanyl)-1H-imidazole-4-carboxylate] | 2.075 ± 0.016 µM | – | – | –
3 | COC(=O)c1c[nH]c(SSc2ccc(Cl)cc2)n1 [Compound 3-17, Methyl 2-((4-chlorophenyl)disulfanyl)-1H-imidazole-4-carboxylate] | 4.13 ± 0.094 µM | – | – | –
4 | CCOC(=O)c1ccccc1SSc1nc(C(=O)OC)c[nH]1 [Compound 3-15, Methyl 2-((2-(ethoxycarbonyl)phenyl)disulfanyl)-1H-imidazole-4-carboxylate] | 5.95 ± 0.363 µM | – | – | –
5 | Clc1ccc(SSc2nnco2)cc1 [Compound 3-31, 2-((4-chlorophenyl)disulfanyl)-1,3,4-oxadiazole] | – | non-competitive inhibitor | reversible | < 1
6 | Brc1ccc(SSc2ncccn2)cc1 [Compound 3-39, 2-((4-bromophenyl)disulfanyl)pyrimidine] | – | non-competitive inhibitor | reversible | < 1

Reference: PMC7115414 (European Journal of Medicinal Chemistry, 2017)
